Data on two molecules can be found in patent publication US10576078B2 (Council of Scientific & Industrial Research, priority 2017, dated 2020).

One data set relates to K562 cells. The data set is described as follows: K562 cell viability, CellTiter-Glo luminescent assay. It counts as cell-based, Human. To be noted: Homo sapiens, 48 h. The method, then:
K562 cells were treated with indicated concentrations of CFZ for 24 h or 48 h, cell viability was then assessed using the CellTiter-Glo luminescent cell viability assay (Promega). Data is mean±SEM of three independent experiments (each in triplicates). IC50 was calculated using Graphpad prism 5 software.
K562 cells were treated as indicated for 48 h and cell viability was determined by CellTiter-Glo luminescent cell viability assay (A) graphical representation of mean±SEM of three independent experiments.
(§1) Determination of CFZ's Effect on Cell Viability and Apoptosis • a. CellTitre-Glo assay: Cell viability (in FIG. 1B, FIG. 4 and FIG. 6A) assays was performed using the ATP-based CellTiter-Glo Luminescent cell viability assay (Promega Madison, Wis.) as per the manufacturer's instruction. Briefly, (1.25×10^5) K562 cells/ml (FIG. 1B and FIG. 4) or CD34+ cells from healthy donors (FIG. 6A) were cultured in 48-well plates and were treated as indicated in the respective figures and figure descriptions (vehicle; V=0.1% DMSO). Cells were then incubated with CellTitre-Glo reagent for 15 min. Luminescence was recorded in a GloMax-96 Microplate luminometer (Promega, Madison, Wis.) with an integration time of 1 s per well. • b. Analysis of apoptosis by Annexin V staining and flow cytometry • K562 (FIG. 1C-D) and primary CP-CML cells (FIG. 1H-I) were cultured in 6 well plates (2×10^5 cells/well) and were treated with indicated concentrations of compounds as described in respective figures and their descriptions. Cells were then harvested and washed, and incubated in binding buffer (Annexin V Binding Buffer, BD Pharmingen) with 0.3% Annexin V-FITC and PI for 15 min at room temperature in dark. Apoptosis was measured by FACSCalibur flow cytometer (Becton Dickenson, San Jose, Calif.). • c. TUNEL assay • Pro-apoptotic potential was analysed using a Fluorometric APO-BrdU™ TUNEL Assay Kit (Invitrogen) according to the manufacturer's protocol (FIG. 1F). Cells were treated with Vehicle (0.1% DMSO) or CFZ (5 μM) for 48 h. Cells were then fixed in formaldehyde (4%) for 25 min at 4° C., permeabilized with 0.2% Triton-X100 and washed with PBS. Cells were then incubated in Terminal Deoxynucleotidyl Transferase (TdT) reaction buffer without TdT enzyme for 7 minutes at room temperature and then in TdT buffer with TdT enzyme at 37° C. in dark. After termination of TdT reaction, cells were stained with 5 μg/ml of PI for 15 min in dark followed by washing and analysed with fluorescence microscopy.
Background: In ATP-based viability assays light output follows the ATP content of the culture.

In another data set the test system is CrkL. The data set is described as follows: Immunoblotting of CrkL phosphorylation in K562 cells. It counts as cell-based, Human. To be noted: 30 min, Y207. The method, then:
K562 cells were treated as indicated for 30 min and stat5 phosphorylation at Y694 or CrkL phosphorylation at Y207 were assessed by immunoblotting. Total stat5 or β-actin expression was assessed to ensure equal loading. Pio was used as a negative control and IMT was used as a positive control. Data is one representative of 3 independent experiments.
K562 cells were cultured in 6 well plates and treated as indicated in figures or descriptions of FIG. 1E, FIG. 1G and FIG. 2D-E. Cells were then homogenized in lysis buffer containing 50 mM Tris-HCl, pH 7.5, 150 mM NaCl, 1% NP40, 5 mM EDTA, 1 mM DTT, protease and phosphatase inhibitor cocktails (Sigma) and incubated on ice for 30 min followed by 5 cycles of freeze-thaw. Samples were then centrifuged at 14000 rpm at 4° C. for 30 min. Supernatants were then quantified by Bichinchonic acid (Sigma)-based protein estimation. Equal amount of proteins were solubilized in Laemmli buffer, and were resolved by 10%-12% SDS PAGE and transferred onto PVDF membranes (Millipore; Billerica, Mass.). Membranes were blocked in 5% (w/v) non-fat dried milk powder (Sigma) in PBS containing 0.2% Tween 20 (Sigma). […] Immunoreactivity was detected using a chemiluminescent HRP Substrate (Millipore) in a LAS 4010 Chemi-doc Imager (GE Healthcare, Little Chalfont, UK). […]
(In general: In western blotting, separated proteins are transferred to a membrane and probed.)

Data set [1] has as its system CD34+ cells from imatinib-resistant patients (quiescent LSCs). Briefly: CFSE assay of quiescent LSCs. The settings on record: n=3, 96 h. It counts as cell-based, Human.
Method: Cells were gated depending on CFSE intensity. […] Apoptosis in these cells was determined by annexin V staining.
For assessing apoptosis in quiescent LSCs, purified CD34^+ cells were first stained with carboxyfluorescein succinimidyl ester (CFSE; Invitrogen) for 30 min. Cells were then washed and resuspended in SFM medium with 5 growth factors and were kept at 37° C. overnight. Next day, cells were treated as indicated in SFM medium with growth factors and were maintained further for 4 days with supplementation of the drugs every 48 h (drug concentrations in FIG. 5 and its description). Cells were then harvested, washed, and were labeled with CD34-PE and Annexin-APC antibodies and then gated into non-dividing cells (CD34^+CFSE^bright) and dividing cell (CD34^+CFSE^dim) population based on CFSE fluorescence intensity. […] Number of cells or apoptosis was determined by flowcytometry.
The subject of data set [2] is CD34+ cells from healthy donors. The method, then:
as §1

The conditions of data set [3]: rat, in vivo, po. The text has this: Sprague-Dawley rats (n=6 per group) were divided into 3 groups. […] Plasma was separated and processed for analysis by LC-MS/MS. For pharmacokinetic and statistical analysis, plasma concentration versus time data were plotted and analyzed by non-compartmental analysis method using WinNonlin (Pharsight, Mountain View, Calif.) software.
For this SD rats (n=6 per group) were divided into 3 groups. […] Plasma was separated and processed for analysis by LC-MS/MS. For pharmacokinetic and statistical analysis, plasma concentration versus time data were plotted and analyzed by non-compartmental analysis method using WinNonlin (Pharsight, Mountain View, Calif.) software.

Read-outs that look alike come from different tables or passages of the source.

Consider `Cc1nc(Nc2ncc(C(=O)Nc3c(C)cccc3Cl)s2)cc(N2CCN(CCO)CC2)n1` [dasatinib, Dasatinib], for which the IC50 (in general, the concentration needed to halve the response being measured) in the data set with K562 cells (drug alone, FIG. 4A, read-out: IC50, K562 cell viability assay (48 h)) was 640 nM; in the data set on K562 cells (in presence of CFZ, read-out: IC50 of dasatinib in presence of CFZ), 12.4 nM.
Consider `Cc1ccc(NC(=O)c2ccc(CN3CCN(C)CC3)cc2)cc1Nc1nccc(-c2cccnc2)n1` [imatinib, Imatinib], for which the CrkL phosphorylation entry in the data set on CrkL is on record as “successfully inhibited”. In data set [1], the “number of CFSE-bright (non-dividing) cells” value is “failed to reduce”. Further, in data set [2], the “viability of CD34+ hematopoietic progenitor cells from healthy controls” value is reported as “No loss of survival”. The “Tmax in combination group compared to individual groups” value in data set [3] is “no change”.
